Laboratory results reported in patent publication US20050089473A1, “Potassium channel mediated delivery of agents through the blood-brain barrier” (Cedars-Sinai Medical Center, priority 2003, published 2005).
Where “and” joins values, the source holds several entries; their conditions need not be identical. Equal entries are not always repeated. Where two headings read alike, the source gives them in different places. Ends that are not written are not given here.

Key:
[1] = cited from earlier work
[2] = target: T1, soluble guanylyl cyclase (Bos taurus, UniProt P16068+P19687); conditions: cited from earlier work
T1 sequence (P16068 1-619): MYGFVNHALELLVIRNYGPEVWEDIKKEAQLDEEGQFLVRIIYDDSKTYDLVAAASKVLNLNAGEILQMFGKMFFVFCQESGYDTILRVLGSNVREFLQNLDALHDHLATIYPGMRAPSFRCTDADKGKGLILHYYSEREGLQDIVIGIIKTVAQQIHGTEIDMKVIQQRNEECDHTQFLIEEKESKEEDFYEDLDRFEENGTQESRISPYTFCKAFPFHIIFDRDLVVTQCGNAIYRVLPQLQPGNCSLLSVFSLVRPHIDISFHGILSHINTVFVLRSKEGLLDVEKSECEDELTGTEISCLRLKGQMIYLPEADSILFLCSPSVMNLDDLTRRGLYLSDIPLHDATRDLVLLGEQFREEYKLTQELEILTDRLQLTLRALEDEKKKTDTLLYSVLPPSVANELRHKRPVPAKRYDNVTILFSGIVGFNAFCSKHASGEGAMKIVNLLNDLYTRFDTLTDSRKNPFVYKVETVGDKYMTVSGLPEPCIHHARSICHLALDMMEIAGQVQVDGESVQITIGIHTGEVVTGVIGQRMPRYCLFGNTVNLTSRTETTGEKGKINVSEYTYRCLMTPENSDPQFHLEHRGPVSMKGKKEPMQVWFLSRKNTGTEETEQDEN
T1 sequence (P19687 1-691): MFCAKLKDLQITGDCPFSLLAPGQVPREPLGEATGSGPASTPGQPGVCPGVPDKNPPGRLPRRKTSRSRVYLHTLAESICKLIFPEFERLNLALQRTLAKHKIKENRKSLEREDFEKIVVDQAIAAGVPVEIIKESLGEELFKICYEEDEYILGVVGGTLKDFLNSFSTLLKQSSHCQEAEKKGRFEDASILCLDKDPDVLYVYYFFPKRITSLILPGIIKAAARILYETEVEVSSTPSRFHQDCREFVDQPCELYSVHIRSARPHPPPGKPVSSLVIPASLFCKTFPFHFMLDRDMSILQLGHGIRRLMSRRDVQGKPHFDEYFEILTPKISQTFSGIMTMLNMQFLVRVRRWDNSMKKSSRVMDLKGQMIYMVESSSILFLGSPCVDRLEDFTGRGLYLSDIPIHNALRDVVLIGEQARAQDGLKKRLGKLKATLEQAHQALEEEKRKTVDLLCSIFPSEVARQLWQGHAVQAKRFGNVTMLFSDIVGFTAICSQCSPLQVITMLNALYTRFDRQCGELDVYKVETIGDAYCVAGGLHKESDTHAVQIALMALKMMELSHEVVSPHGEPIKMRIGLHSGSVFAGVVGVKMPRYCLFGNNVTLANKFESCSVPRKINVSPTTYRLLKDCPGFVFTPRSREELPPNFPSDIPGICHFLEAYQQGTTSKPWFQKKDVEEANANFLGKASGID

[3] = cited from earlier work; remark: listed apart in the source
[4] = system: intracranial RG2 tumors; test: Survival study, rats with intracranial RG2 tumors; type: in vivo, rat
Description: Wistar rats with implanted intracranial tumors were used to study the effect of MS on increased carboplatin delivery and survival. RG2 cells (1×10^5) were implanted intracranially to form a tumor (2 mm in size) in rats within a week. After a week, rats were given saline, carboplatin (5 mg/kg) or carboplatin after 15 min of MS (30 μg/kg/min for 15 min) infusion through an exteriorized catheter once a day for three consecutive days. The rats were carefully monitored for mortality and clinical signs due to brain tumor growth for 90 days or until death, whichever came first. Brains of dead, moribund or those rats that survived beyond 90 days were removed, frozen and cryosectioned for histological evaluation, in order to compare tumor volumes between treated and untreated groups. Kaplan-Meier analysis was performed to determine the statistical significance of the results.

[5] = system: KATP channels; test: Membrane potential assay of KATP channel activity; type: cell-based, human; conditions: RBEC, HBMVEC, RG2 and GBM cells
Description: Functional activities of putative KATP channels in HBMVEC and GBM cells were measured by detecting changes in voltage across the cell membrane as described earlier (Ningarsj, N. S., Rao, M., Hashizume, K., Asotra, K., and Black, K. L. Regulation of blood-brain tumor barrier permeability by calcium-activated potassium channels J. Pharmacol. Exp. Ther., 301:838-851, 2002). A membrane potential assay kit (Molecular Devices, Sunnyvale, Calif.) provided a fast, simple and consistent mix-and-read procedure. In brief, HBMVEC and GBM cells obtained from cell passages 2-5 was suspended in 5 ml of growth medium. In two separate experiments, the cell density was adjusted to 1×10^3 cells/well and coated in sterile, clear bottom, blank 96-well plates (Corning, Inc., Acton, Mass.), pre-coated with poly L-Lysine, and allowed to achieve a monolayer within 24 h. The monolayer cells were incubated with the membrane potential assay kit reagents for 30 min and read directly by FLEXstation. The anionic pchemiometric dye that traverses between cells and the extracellular solution in a membrane potential-dependent manner serves as an indicator of vasomodulator-induced voltage changes across the cell membrane. […] Additionally, the effects of the optimum dose (10 μM) of MS and glibenclamide (100 nM) on KATP channels activity in HBMVEC and GBM cells were determined.

[6] = system: intracerebral RG2 tumors; test: In vivo BTB permeability (Ki by quantitative autoradiography) in RG2 tumor-bearing rats; design: species or system rat; conditions: data not shown
[7] = system: intracranial human glial tumors; test: Survival study, nude mice with intracranial human glial tumors; type: in vivo, mouse; conditions: i.v., three consecutive doses for three days
Description: GBM-xenograft rat and mouse models were developed by intracranially implanting primary GBM cells isolated from patient brain tumor tissue. […] To investigate whether MS administration by intracarotid (i.c.) and intravenous (i.v.) routes, increases BTB permeability to different tracers, and enhances delivery to brain tumor, permeability studies were performed.
Nude mice were intracranially implanted with cells. The tumor was allowed to grow for 7 days before treatment was initiated.

CC(=O)NC(C(=O)O)C(C)(C)SN=O (racemic) [SNAP, S-nitroso-N-acetyl-D,L-penicillamine]
Half-life (t1/2) of NO donor [1]: 1980 to 2460 min

[C-]#[O+] [CO, Carbon monoxide]
Increase in soluble guanylyl cyclase activity ([2]; in the presence of YC-1): > 100 fold

CCN(CC)N(O)N=O.CCNCC [DEA/NO, N-ethylethanamine: 1,1-diethyl-2-hydroxy-2-nitrosohydrazine (1:1)]
Half-life (t1/2) of NO donor [1]: 2 to 4 min

NCCN(CCN)N(O)N=O [DETA/NO, 2,2′-hydroxynitrosohydrazino]bis-ethanamine]
Half-life (t1/2) of NO donor [1]: about 20 hours

[N]=O [NO, Nitric oxide]
Increase of vMax of sGC [2]: 100-200 fold

O=c1[nH]c2cc(C(F)(F)F)ccc2n1-c1cc(C(F)(F)F)ccc1O [NS-1619, 1,3-dihydro-1-[2-hydroxy-5-(trifluoromethyl)phenyl]-5-(trifluoromethyl)-2H-benzimidazol-2-one]
Effect on CBF in tumor and normal brain ([3]; i.c. infusion of low doses): did not alter CBF

CCCN(CCCN)N(O)N=O [PAPA/NO, 3-(2-hydroxy-2-nitroso-1-propylhydrazino)-1-propanamine]
Half-life (t1/2) of NO donor [1]: about 15 minutes

NCCCNCCCCN(CCCN)N(O)N=O [SPER/NO, N-(4-[1-(3-aminopropyl)-2-hydroxy-2-nitroso-hydrazino]-butyl)-1,3-propanediamine]
Half-life (t1/2) of NO donor [1]: 34 to 40 min

N.N.O=C([O-])C1(C(=O)[O-])CCC1.[Pt+2] [carboplatin]
Mean survival ([4]; RG2 tumor rats, i.c. once a day for three days, carboplatin 5 mg/kg, MS 30 μg/kg/min for 15 min): 55.46 ± 5.71 days
Mean tumor size ([4]; coronal brain sections): 5.30±1.9 mm^2 and 5.30±1.2 mm^2

COc1ccc(Cl)cc1C(=O)NCCc1ccc(S(=O)(=O)NC(=O)NC2CCCCC2)cc1 [glibenclamide]
Membrane potential dye fluorescence intensity [5]: reversed
BBB or BTB permeability, glibenclamide infused alone or prior to MS [6]: did not affect BBB or BTB permeability

Cn1nnc2c(C(N)=O)ncn2c1=O [temodor]
Mean survival [7]: 25.5 ± 6.3 days

RPPGFSPFR [BK]
Effect on CBF in tumor and normal brain ([3]; rat, in vivo): did not alter CBF
